Patent US7001736B1, “Pharmacogenetic methods for use in the treatment of nervous system diseases” (priority 1995, dated 2006)
Like-named read-outs stand apart in the source and are kept apart here.

Tests used:
patients with AD = test system: patients with AD
Text: In this example we characterize patients with AD recruited for a large multi center study of tacrine and to investigate the impact of apoE allele load on short-term outcomes in placebo-treated patients, short-term Tacrine™ treatment effects, and long-term treatment outcome. The patients were classified by sex and dosage.
The 30-week study was randomized, double-blind, placebo-controlled, parallel-group clinical trial conducted at 33 centers in the USA (see Knapp, M. J. et al. JAMA 271: 985–991 (1995) for complete methodology). Patients randomized to tacrine treatment received an initial dose of 40 mg/day (10 mg QID) and were force-titrated at 6-week intervals in increments of 40 mg to maximum dose levels of 80, 120, and 160 mg/day for Groups II, III, and IV, respectively. Group I received placebo for the entire 30 weeks. The protocol was approved by Institutional Review Boards for each study center and followed guidelines of the Declaration of Helsinki and Good Clinical Practices.
Patients eligible for the 30-week study were men and women, at least 50 years of age, meeting National Institute of Neurological and Communicative Disorders and Stroke (NINCDS) criteria for a diagnosis of probable AD. […] Disease severity at the time of study entry was defined mild to moderate based on Mini-Mental State Examination. (MMSE) scores between 10 and 26 inclusive. Written informed consent was obtained from care givers and patients or their legal representatives. Medications with known central nervous system effects were prohibited during double-blind treatment. Once patients completed or terminated from the double-blind phase of the study there were no restrictions on concurrent medications. Patients who stopped tacrine treatment could take other investigational drugs.
The ADAS-Cog is an objective test that evaluates memory, language, and praxis and is a sensitive measure of patient performance (maximum severity score of […]). A decrease in score indicates improvement.
Four comparisons of tacrine 160 mg/day versus placebo were conducted: (1) without adjusting for ApoE4; (2) adjusting for the presence or absence of ApoE4; (3) for patients with Apo E4; and (4) without Apo E4. The estimated treatment differences, 95% confidence intervals for the treatment differences, and parametric p-values were computed from an analysis of variance (ANOVA) that included effects for randomized treatment group (placebo, 80 mg/day, 120 mg/day, and 160 mg/day) and study site. An analysis of covariance (ANCOVA) for ADAS-Cog also included baseline score a covariant. Least-square means were used to estimate the effect of the E4 allele on Week 30 efficacy scores.
The change in ADAS-Cog scores at Week 30 were estimated for: (1) placebo patients with an E4 allele, (2) placebo patients without an E4 allele, (3) Tacrine™ 160 mg/day patients with an E4 allele, and (4) Tacrine™ 160 mg/day patients without an E4 allele using ANCOVA that adjusted for site and baseline score. Similarly, Week 30 CIBIC and FCCA scores were estimated using ANOVA adjusted for study site effects.

AD patients = conditions: maximum dose, 40 to 160 mg/d over 30 weeks
Text: The patients selection done on the basis of presence and absence of drug response to the treatment. The Alzheimer's Disease Assessment Scale (ADAS) used to monitor treatment effects. […] The ADAS-cog is an objective test that evaluates memory, attention, reasoning, orientation and praxis: a decrease score over time (or a positive difference) indicates improvement (Rosen W. G. et al, 1984, Am. J. Psychiatr., 141:1356 1364). The AD total includes the cognitive and non-cognitive portion of the ADAS.
Each bar represents an individual subjects. Positive delta values (difference in AD score at the end minus AD score prior to drug treatment) indicate improvement in cognitive performance (ADcog) and in global performances (ADAS-total). Negative values represent patients who deteriorated over time and drug treatment. All the subjects are AD subjects, all were treated with the same drug, at the same level, for the same duration.

Nc1c2c(nc3ccccc13)CCCC2 [Tacrine, tacrine]
response to tacrine (patients with AD; men having two E4 alleles): do not respond | % of subjects with an improvement of the ADAS-COG score by at least 5 points (patients with AD; men, Tacrine high, E4/X): 69% | % of subjects with an improvement of the ADAS-COG score by at least 5 points (patients with AD; men, Tacrine high, EX/X): 29% | % of subjects with an improvement of the ADAS-COG score by at least 5 points (patients with AD; men, Tacrine low, E4/4): 0% | % of subjects with an improvement of the ADAS-COG score by at least 5 points (patients with AD; men, Tacrine low, E4/X): 14% | % of subjects with an improvement of the ADAS-COG score by at least 5 points (patients with AD; men, Tacrine low, EX/X): 33% | % of subjects with an improvement of the ADAS-COG score by at least 5 points (patients with AD; men, Tacrine mid, E4/4): 0% | % of subjects with an improvement of the ADAS-COG score by at least 5 points (patients with AD; men, Tacrine mid, E4/X): 34% | % of subjects with an improvement of the ADAS-COG score by at least 5 points (patients with AD; men, Tacrine mid, EX/X): 0% | response to tacrine (patients with AD; women having two E4 alleles): do not respond | % of subjects with an improvement of the ADAS-COG score by at least 5 points (patients with AD; women, Tacrine high, E4/X): 20% | % of subjects with an improvement of the ADAS-COG score by at least 5 points (patients with AD; women, Tacrine high, EX/X): 43% | % of subjects with an improvement of the ADAS-COG score by at least 5 points (patients with AD; women, Tacrine low, E4/4): 0% | % of subjects with an improvement of the ADAS-COG score by at least 5 points (patients with AD; women, Tacrine low, E4/X): 20% | % of subjects with an improvement of the ADAS-COG score by at least 5 points (patients with AD; women, Tacrine mid, E4/4): 0% | % of subjects with an improvement of the ADAS-COG score by at least 5 points (patients with AD; women, Tacrine mid, E4/X): 24% | % of subjects with an improvement of the ADAS-COG score by at least 5 points (patients with AD; women, Tacrine mid, EX/X): 67% | subjects showing improvement with tacrine administration (AD total) (AD patients; apoE4 negative AD subjects): more than 85% | subjects worse following drug treatment (AD total) (AD patients; apoE4 positive AD subjects): 60%
